Experiments:
Assay type in all cases: cell-based
[1] = test system: HeLa cells; assay: Cell viability (CellTiter-Glo), Experimental Example 5: type of PARP inhibitor; settings: olaparib 1 μM, rucaparib 1 μM, niraparib 0.1 μM, veliparib 2 μM
Procedure: (§1) A total of 0.5×10^4 cells were mixed with 1 μM olaparib (AZD2281) (Selleckchem, #S1060), 1 μM rucaparib (Selleckchem, #S4948), 0.1 μM niraparib (MK-4827) (Selleckchem, #S2741), 2 μM veliparib (ABT-888) (Selleckchem, #S1004), or 10 µM iniparib (BSI-201) (Selleckchem, #S1087), and seeded onto 24-well plates.
(§2) To transfect RNPs, cells were transfected with 665 ng of the Cas protein of each Embodiment and 95 ng of the sgRNA of each Embodiment using a Lipofectamine CRISPRMAX Cas9 Transfection Reagent (Invitrogen, #CMAX00015), and then cultured for 3 days. When treated together with a PARP inhibitor, the PARP inhibitor was treated according to Experimental Example 1.6, and the RNPs were treated one day thereafter.
(§3) Cell viability was measured using a CellTiter-Glo Luminescent Cell Viability Assay (Promega, #G7571). After the transfected cells were cultured for 3 days, the cells were detached using Trypsin-EDTA (0.25%) (Gibco, #25200056). The cells were diluted in 400 μL of DMEM, followed by dispensing 100 μL of the cells, mixed with 100 μL of the CellTiter-Glo Reagent, and then incubated at room temperature for 10 minutes. Luminescence signals were measured using an Infinite 200 (Tecan) in a white opaque 96-well plate (Corning, #3917).
(§4) Specifically, Hela cells and HCT-116 cells cultured according to Experimental Example 1.1 were treated with a PARP inhibitor and a CRISPR/nCas composition for cell death having the compositions shown in the following table.
(§5) For each RNP composition of the embodiment using nCas9^D10A, one PARP inhibitor selected from olaparib, rucaparib, niraparib, veliparib, and iniparib was co-administered. DMSO was used as a control.
(§6) The Cas protein and the nCas protein used in this experiment were prepared according to Experimental Example 1.2, and the sgRNA used was prepared according to Experimental Example 1.3. The nCas protein and the sgRNA were administered to the cells in the form of RNPs according to Experimental Example 1.7. The cells were each treated with the respective PARP inhibitors at the concentrations disclosed in Experimental Example 1.6 using the materials disclosed in the above table.
(§7) Thereafter, cell viability was measured according to Experimental Example 1.8.

[2] = test system: HCT-116 cells; assay: as above; settings: olaparib 1 μM, rucaparib 1 μM, niraparib 0.1 μM, veliparib 2 μM
Procedure: as §1, §2, §3, §4, §5, §6, §7

[3] = test system: HeLa cells; assay: Cell viability (CellTiter-Glo), Experimental Example 2: CRISPR/nCas composition for cell death with or without olaparib; settings: relative cell viability, sgRNA delivered as nCas9 D10A RNP, Mock = no guide RNA
Procedure: as §1, §2, §3
(§8) To evaluate the cell death effects of a CRISPR/nCas composition for cell death and a PARP inhibitor, the following experiment was conducted. Specifically, Hela cells and HCT-116 cells cultured according to Experimental Example 1.1 were treated with a PARP inhibitor (olaparib) and a CRISPR/nCas composition for cell death having the compositions shown in the following table.
(§9) The nCas protein used in this experiment was prepared according to Experimental Example 1.2, and the sgRNA used was prepared according to Experimental Example 1.3. The nCas protein and the sgRNA were administered to the cells in the form of RNPs according to Experimental Example 1.7. In the case of the PARP inhibitor, the concentrations disclosed in the above table were applied to each cell according to Experimental Example 1.6.
as §7

[4] = test system: HCT-116 cells; assay: as above; settings: relative cell viability, HCT-116, Olaparib (+): olaparib 1 μM, sgRNA delivered as nCas9 D10A RNP, Mock = no guide RNA
Procedure: as §1, §2, §3, §8, §9, §7

[5] = test system: HeLa cells; assay: Cell viability (CellTiter-Glo), Experimental Example 4: dependence on olaparib concentration; settings: nCas9 D10A RNP or siRNA co-treatment, Non-treated (label Olaparib) = PARP inhibitor only
Procedure: as §2
(§10) To compare cell death effects depending on the concentration of a PARP inhibitor administered, the following experiment was performed. Specifically, Hela cells and HCT-116 cells cultured according to Experimental Example 1.1 were treated with a PARP inhibitor (olaparib) and a CRISPR/nCas composition for cell death having the compositions shown in the following table.
(§11) For each labeled material, experiments were conducted while varying the concentration of olaparib.
(§12) Here, in the case of siRNA, an siRNA having the sequence […] (SEQ ID NO: 40) was used, and 20 pmole thereof was delivered to the cells according to Experimental Example 1.7. After the experiment, cell viability was measured according to Experimental Example 1.8.

[6] = test system: HCT-116 cells; assay: as above; settings: nCas9 D10A RNP or siRNA co-treatment, Non-treated (label Olaparib) = PARP inhibitor only
Procedure: as §2, §10, §11, §12

[7] = PARP inhibitor with nCas9^D10A, Target = Mock (PBS instead of sgRNA)
[8] = drug_only (no Cas protein, no guide RNA)
[9] = olaparib 10 μM, listed as olaparib

**Q.** Which “Relative cell viability (average, n = 3)” value [1, 7] does the source give for `O=C(c1cc(Cc2n[nH]c(=O)c3ccccc23)ccc1F)N1CCN(C(=O)C2CC2)CC1` [Olaparib, olaparib] here?
**A.** Its value is 0.9135.

**Q.** What about the “Relative cell viability (average, n = 3)” value [1, 8] of the same compound?
**A.** Its value is 0.8856.

**Q.** What about the “Relative cell viability (average, n = 3)” value [2, 7] of the same compound?
**A.** Its value is 1.0164.

**Q.** What about the “Relative cell viability (average, n = 3)” value [2, 8] of the same compound?
**A.** Its value is 1.1219.

**Q.** What about the “Rep 1 (rel)” value ([3]; Olaparib (+): olaparib 1 μM) of the same compound?
**A.** Its value is 1.163.

**Q.** What about the “Rep 2 (rel)” value ([3]; Olaparib (+): olaparib 1 μM) of the same compound?
**A.** Its value is 0.967.

**Q.** And the “Rep 3 (rel)” value ([3]; Olaparib (+): olaparib 1 μM)?
**A.** Its value is 1.02.

**Q.** And the Average ([3]; average of Rep 1-3, Olaparib (+): olaparib 1 μM)?
**A.** Its Average is 1.05.

**Q.** And the Average ([4]; average of Rep 1-3)?
**A.** The Average was 1.05.

**Q.** And the “Rep 1 (rel)” value [4]?
**A.** Its value is 0.9889.

**Q.** What about the “Rep 2 (rel)” value [4] of the same compound?
**A.** Its value is 1.027.

**Q.** And the “Rep 3 (rel)” value [4]?
**A.** The value was 1.131.

**Q.** And the “Relative cell viability (average, n = 3)” value ([5]; olaparib 0.0001 μM)?
**A.** Its value is 1.0000.

**Q.** And the “Relative cell viability (average, n = 3)” value ([5]; olaparib 0.001 μM)?
**A.** The value was 0.9810.

**Q.** What about the “Relative cell viability (average, n = 3)” value ([5]; olaparib 0.01 μM) of the same compound?
**A.** The value was 0.9959.

**Q.** What about the “Relative cell viability (average, n = 3)” value ([5]; olaparib 0.1 μM) of the same compound?
**A.** Its value is 0.9391.

**Q.** What about the “Relative cell viability (average, n = 3)” value ([5]; olaparib 1 μM) of the same compound?
**A.** Its value is 0.9279.

**Q.** And the “Relative cell viability (average, n = 3)” value ([5]; olaparib 10 μM)?
**A.** The value was 0.1192.

**Q.** And the “Relative cell viability (average, n = 3)” value [5, 9]?
**A.** Its value is “exhibits cytotoxicity”.

**Q.** What about the “Relative cell viability (average, n = 3)” value ([6]; olaparib 0.0001 μM) of the same compound?
**A.** The value was 1.0000.

**Q.** What about the “Relative cell viability (average, n = 3)” value ([6]; olaparib 0.001 μM) of the same compound?
**A.** Its value is 0.9939.

**Q.** And the “Relative cell viability (average, n = 3)” value ([6]; olaparib 0.01 μM)?
**A.** The value was 0.9743.

**Q.** What about the “Relative cell viability (average, n = 3)” value ([6]; olaparib 0.1 μM) of the same compound?
**A.** Its value is 1.0072.

**Q.** And the “Relative cell viability (average, n = 3)” value ([6]; olaparib 1 μM)?
**A.** Its value is 1.0307.

**Q.** And the “Relative cell viability (average, n = 3)” value ([6]; olaparib 10 μM)?
**A.** Its value is 0.7979.

**Q.** What about the “Relative cell viability (average, n = 3)” value [6, 9] of the same compound?
**A.** Its value is “exhibits cytotoxicity”.

Source: patent US20260158172A1, “CELL DEATH METHOD USING CRISPR/CAS SYSTEM HAVING SINGLE-STRAND BREAK ACTIVITY AND PARP INHIBITOR” (INSTITUTE FOR BASIC SCIENCE, priority 2023, published 2026)
